{"source": "patent US10577332B2", "about": "“Tetrazole derivatives” (Hoffmann-La Roche Inc., priority 2015, dated 2020)", "key": {"[1]": {"molecular_target": "T1, human EAAT3 (Homo sapiens, UniProt P43005)", "T1 construct": "expressed in transfected cells", "T1 sequence (P43005 1-524)": "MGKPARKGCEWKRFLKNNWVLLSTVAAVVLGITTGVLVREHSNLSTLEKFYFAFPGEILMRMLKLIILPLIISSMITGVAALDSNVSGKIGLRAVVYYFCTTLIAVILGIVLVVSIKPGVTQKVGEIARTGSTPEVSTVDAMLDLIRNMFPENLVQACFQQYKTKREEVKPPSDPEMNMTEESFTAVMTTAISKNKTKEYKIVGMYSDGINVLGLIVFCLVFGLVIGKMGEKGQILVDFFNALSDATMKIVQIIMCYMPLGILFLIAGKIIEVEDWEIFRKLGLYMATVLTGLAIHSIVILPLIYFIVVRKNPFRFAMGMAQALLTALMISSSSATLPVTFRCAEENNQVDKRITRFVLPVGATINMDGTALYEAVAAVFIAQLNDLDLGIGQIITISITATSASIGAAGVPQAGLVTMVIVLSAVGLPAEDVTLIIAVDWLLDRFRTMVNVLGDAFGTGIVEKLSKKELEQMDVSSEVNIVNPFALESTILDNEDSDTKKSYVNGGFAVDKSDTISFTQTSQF", "assay": "FLIPR Membrane Potential (FMP) assay", "format": "cell-based", "details": "HEK-293 cells stably expressing human EAAT3; antagonist applied 15 min before L-glutamate at EC80; Kb by Cheng-Prusoff from IC50", "how_it_was_run": "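HEK-293 cells stably expressing human EAAT3, loaded with membrane-potential dye 1 h at 37 °C in Krebs buffer pH 7.4. Antagonists added 15 min before L-glutamate at EC80; peak fluorescence minus basal read on FLIPR at room temperature. Kb derived from IC50 via Cheng-Prusoff.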"}}, "data": [{"smiles": "CCC(C)(C)NC(=O)c1cc(-c2ccc(C(F)(F)F)cc2)cc(-n2cnnn2)c1", "note": "[Example 2, N-(2-Methylbutan-2-yl)-3-(tetrazol-1-yl)-5-[4-(trifluoromethyl)phenyl]-benzamide]", "values": [{"measurement": "melting point", "result": 168, "unit": "°C"}, {"measurement": "Kb", "setting": "[1]", "result": 220, "unit": "nM"}]}, {"smiles": "Cc1ccc(-c2cc(C(=O)NC(C)(C)C)cc(-n3nnnc3C)c2)cc1", "note": "[Example 23, N-tert-Butyl-3-(4-methylphenyl)-5-(5-methyltetrazol-1-yl)-benzamide]", "values": [{"measurement": "melting point", "result": 85, "unit": "°C"}, {"measurement": "Kb", "setting": "[1]", "result": 290, "unit": "nM"}]}, {"smiles": "CC(C)c1nnnn1-c1cc(C(=O)NC(C)(C)C)cc(-c2ccc(F)cc2)c1", "note": "[Example 61, N-tert-Butyl-3-(4-fluorophenyl)-5-(5-propan-2-yltetrazol-1-yl)-benzamide]", "values": [{"measurement": "melting point", "result": 85, "unit": "°C"}, {"measurement": "Kb", "setting": "[1]", "result": 230, "unit": "nM"}]}, {"smiles": "Cc1ccc(-c2cc(C(=O)NC(C)(C)C(F)(F)F)cc(-n3nnnc3C3CC3)c2)cc1", "note": "[Example 25, 3-(5-Cyclopropyltetrazol-1-yl)-5-(4-methylphenyl)-N-(1,1,1-trifluoro-2-methylpropan-2-yl)-benzamide]", "values": [{"measurement": "melting point", "result": 82, "unit": "°C"}, {"measurement": "Kb", "setting": "[1]", "result": 270, "unit": "nM"}]}, {"smiles": "Cc1cc(-c2cc(C(=O)NC(C)(C)C)cc(-n3nnnc3C(C)(C)C)c2)ccc1F", "note": "[Example 103, N-tert-Butyl-3-(5-tert-butyltetrazol-1-yl)-5-(4-fluoro-3-methylphenyl)-benzamide]", "values": [{"measurement": "melting point", "result": 190.5, "unit": "°C"}, {"measurement": "Kb", "setting": "[1]", "result": 260, "unit": "nM"}]}, {"smiles": "CC(C)(NC(=O)c1cc(-c2ccc(Cl)cc2)cc(-n2nnnc2C2CC2)c1)C(F)(F)F", "note": "[Example 54, 3-(4-Chlorophenyl)-5-(5-cyclopropyltetrazol-1-yl)-N-(1,1,1-trifluoro-2-methylpropan-2-yl)-benzamide]", "values": [{"measurement": "melting point", "result": 91.5, "unit": "°C"}, {"measurement": "Kb", "setting": "[1]", "result": 210, "unit": "nM"}]}, {"smiles": "CCC(C)(C)NC(=O)c1cc(-c2ccc(F)cc2)cc(-n2nnnc2C2CC2)c1", "note": "[Example 68, 3-(5-Cyclopropyltetrazol-1-yl)-5-(4-fluorophenyl)-N-(2-methylbutan-2-yl)-benzamide]", "values": [{"measurement": "melting point", "result": 74, "unit": "°C"}, {"measurement": "Kb", "setting": "[1]", "result": 180, "unit": "nM"}]}, {"smiles": "Cc1ccc(-c2cc(C(=O)NC(C)(C)C)cc(-n3nnnc3C(C)(C)C)c2)cc1F", "note": "[Example 108, N-tert-Butyl-3-(5-tert-butyltetrazol-1-yl)-5-(3-fluoro-4-methylphenyl)-benzamide]", "values": [{"measurement": "melting point", "result": 227.5, "unit": "°C"}, {"measurement": "Kb", "setting": "[1]", "result": 420, "unit": "nM"}]}, {"smiles": "Cc1ccc(-c2cc(C(=O)NC3(C)CCS(=O)(=O)C3)cc(-n3nnnc3C3CC3)c2)cc1", "note": "(racemic) [Example 33, (RS)-3-(5-Cyclopropyltetrazol-1-yl)-N-(3-methyl-1,1-dioxothiolan-3-yl)-5-(4-methylphenyl)-benzamide]", "values": [{"measurement": "melting point", "result": 130.5, "unit": "°C"}, {"measurement": "Kb", "setting": "[1]", "result": 300, "unit": "nM"}]}, {"smiles": "CCC(C)(C)NC(=O)c1cc(-c2ccc(F)c(Cl)c2)cc(-n2cnnn2)c1", "note": "[Example 40, 3-(3-Chloro-4-fluorophenyl)-N-(2-methylbutan-2-yl)-5-(tetrazol-1-yl)-benzamide]", "values": [{"measurement": "melting point", "result": 205, "unit": "°C"}, {"measurement": "Kb", "setting": "[1]", "result": 570, "unit": "nM"}]}, {"smiles": "CC(C)(CO)NC(=O)c1cc(-c2ccc(F)cc2)cc(-n2nnnc2C(C)(C)C)c1", "note": "[Example 94, 3-(5-tert-Butyltetrazol-1-yl)-5-(4-fluorophenyl)-N-(1-hydroxy-2-methylpropan-2-yl)-benzamide]", "values": [{"measurement": "melting point", "result": 212, "unit": "°C"}, {"measurement": "Kb", "setting": "[1]", "result": 250, "unit": "nM"}]}, {"smiles": "CC(C)(C)c1nnnn1-c1cc(C(=O)NC(C)(C)C2CC2)cc(-c2ccc(F)c(F)c2)c1", "note": "[Example 113, 3-(5-tert-Butyltetrazol-1-yl)-N-(2-cyclopropylpropan-2-yl)-5-(3,4-difluorophenyl)-benzamide]", "values": [{"measurement": "melting point", "result": 90, "unit": "°C"}, {"measurement": "Kb", "setting": "[1]", "result": 350, "unit": "nM"}]}, {"smiles": "CCc1nnnn1-c1cc(C(=O)NC(C)(C)CC)cc(-c2ccc(C)cc2)c1", "note": "[Example 28, 3-(5-Ethyltetrazol-1-yl)-N-(2-methylbutan-2-yl)-5-(4-methylphenyl)-benzamide]", "values": [{"measurement": "melting point", "result": 71.5, "unit": "°C"}, {"measurement": "Kb", "setting": "[1]", "result": 140, "unit": "nM"}]}, {"smiles": "Cc1ccc(-c2cc(C(=O)NC3(C)CCS(=O)(=O)C3)cc(-n3nnnc3C)c2)cc1", "note": "(racemic) [Example 24, (RS)-N-(3-Methyl-1,1-dioxothiolan-3-yl)-3-(4-methylphenyl)-5-(5-methyltetrazol-1-yl)-benzamide]", "values": [{"measurement": "melting point", "result": 69, "unit": "°C"}, {"measurement": "Kb", "setting": "[1]", "result": 380, "unit": "nM"}]}, {"smiles": "Cc1ccc(-c2cc(C(=O)NC(C)(C)C(F)(F)F)cc(-n3nnnc3C(C)C)c2)cc1", "note": "[Example 19, 3-(4-Methylphenyl)-5-(5-propan-2-yltetrazol-1-yl)-N-(1,1,1-trifluoro-2-methylpropan-2-yl)-benzamide]", "values": [{"measurement": "melting point", "result": 79, "unit": "°C"}, {"measurement": "Kb", "setting": "[1]", "result": 230, "unit": "nM"}]}, {"smiles": "CC(C)(NC(=O)c1cc(-c2ccc(F)cc2)cc(-n2nnnc2C2CC2)c1)C(F)(F)F", "note": "[Example 73, 3-(5-Cyclopropyltetrazol-1-yl)-5-(4-fluorophenyl)-N-(1,1,1-trifluoro-2-methylpropan-2-yl)-benzamide]", "values": [{"measurement": "melting point", "result": 81, "unit": "°C"}, {"measurement": "Kb", "setting": "[1]", "result": 110, "unit": "nM"}]}, {"smiles": "Cc1ccc(-c2cc(C(=O)NC(C)(C)C3CC3)cc(-n3nnnc3C(C)C)c2)cc1", "note": "[Example 20, N-(2-Cyclopropylpropan-2-yl)-3-(4-methylphenyl)-5-(5-propan-2-yltetrazol-1-yl)-benzamide]", "values": [{"measurement": "melting point", "result": 78, "unit": "°C"}, {"measurement": "Kb", "setting": "[1]", "result": 310, "unit": "nM"}]}, {"smiles": "CCc1nnnn1-c1cc(C(=O)NC(C)(C)C(F)(F)F)cc(-c2ccc(C)cc2)c1", "note": "[Example 26, 3-(5-Ethyltetrazol-1-yl)-5-(4-methylphenyl)-N-(1,1,1-trifluoro-2-methylpropan-2-yl)-benzamide]", "values": [{"measurement": "melting point", "result": 78, "unit": "°C"}, {"measurement": "Kb", "setting": "[1]", "result": 300, "unit": "nM"}]}, {"smiles": "CCC(C)(C)NC(=O)c1cc(-c2ccc(OC)cc2)cc(-n2cnnn2)c1", "note": "[Example 7, 3-(4-Methoxyphenyl)-N-(2-methylbutan-2-yl)-5-(tetrazol-1-yl)-benzamide]", "values": [{"measurement": "melting point", "result": 150, "unit": "°C"}, {"measurement": "Kb", "setting": "[1]", "result": 410, "unit": "nM"}]}, {"smiles": "CC(C)(C)c1nnnn1-c1cc(C(=O)NC(C)(C)C2CC2)cc(-c2ccc(C(F)(F)F)cc2)c1", "note": "[Example 111, 3-(5-tert-Butyltetrazol-1-yl)-N-(2-cyclopropylpropan-2-yl)-5-[4-(trifluoromethyl)-phenyl]-benzamide]", "values": [{"measurement": "melting point", "result": 95.5, "unit": "°C"}, {"measurement": "Kb", "setting": "[1]", "result": 500, "unit": "nM"}]}, {"smiles": "CC(C)(NC(=O)c1cc(-c2ccc(F)cc2)cc(-n2cnnn2)c1)C1CC1", "note": "[Example 21, N-(2-cyclopropylpropan-2-yl)-3-(4-fluorophenyl)-5-(tetrazol-1-yl)-benzamide]", "values": [{"measurement": "melting point", "result": 193, "unit": "°C"}, {"measurement": "Kb", "setting": "[1]", "result": 960, "unit": "nM"}]}, {"smiles": "CC(C)(C)NC(=O)c1cc(-c2ccc(F)cc2)cc(-n2nnnc2C(C)(C)C)c1", "note": "[Example 98, N-tert-Butyl-3-(5-tert-butyltetrazol-1-yl)-5-(4-fluorophenyl)-benzamide]", "values": [{"measurement": "melting point", "result": 223.5, "unit": "°C"}, {"measurement": "Kb", "setting": "[1]", "result": 100, "unit": "nM"}]}, {"smiles": "CC(C)c1nnnn1-c1cc(C(=O)NC2(C)CCS(=O)(=O)C2)cc(-c2ccc(Cl)cc2)c1", "note": "(racemic) [Example 45, (RS)-3-(4-Chlorophenyl)-N-(3-methyl-1,1-dioxothiolan-3-yl)-5-(5-propan-2-yltetrazol-1-yl)benzamide]", "values": [{"measurement": "melting point", "result": 73, "unit": "°C"}, {"measurement": "Kb", "setting": "[1]", "result": 260, "unit": "nM"}]}, {"smiles": "CC(C)(C)c1nnnn1-c1cc(C(=O)NC(C)(C)C2CC2)cc(-c2ccc(Cl)c(F)c2)c1", "note": "[Example 112, 3-(5-tert-Butyltetrazol-1-yl)-5-(4-chloro-3-fluorophenyl)-N-(2-cyclopropylpropan-2-yl)-benzamide]", "values": [{"measurement": "melting point", "result": 106.5, "unit": "°C"}, {"measurement": "Kb", "setting": "[1]", "result": 530, "unit": "nM"}]}, {"smiles": "CC(C)(C)c1nnnn1-c1cc(C(=O)NC(C)(C)C(F)(F)F)cc(-c2ccc(Cl)cc2)c1", "note": "[Example 93, 3-(5-tert-Butyltetrazol-1-yl)-5-(4-chlorophenyl)-N-(1,1,1-trifluoro-2-methylpropan-2-yl)-benzamide]", "values": [{"measurement": "melting point", "result": 218.5, "unit": "°C"}, {"measurement": "Kb", "setting": "[1]", "result": 260, "unit": "nM"}]}, {"smiles": "CC(C)c1nnnn1-c1cc(C(=O)NC(C)(C)C(F)(F)F)cc(-c2ccc(F)cc2)c1", "note": "[Example 59, 3-(4-Fluorophenyl)-5-(5-propan-2-yltetrazol-1-yl)-N-(1,1,1-trifluoro-2-methylpropan-2-yl)-benzamide]", "values": [{"measurement": "melting point", "result": 80, "unit": "°C"}, {"measurement": "Kb", "setting": "[1]", "result": 310, "unit": "nM"}]}]}
